Experimental data reported in US20240082417A1, “PROTEIN-POLYMER DRUG CONJUGATES” (priority 2022, published 2024).
Non-standard residues stand in square brackets, D forms with d. Residues, ends and D or L forms follow the SMILES beside them. *: point of attachment. Dolaproine = CO[C@@H]([C@@H]1CCCN1)[C@@H](C)C(=O)O; Dil = CC[C@H](C)[C@H](NC)[C@@H](CC(=O)O)OC; NMe2Val = CC(C)[C@@H](C(=O)*)N(C)C; NH(3-hydroxypropyl) = OCCCN*

Key:
[1] = Tolerability of Auristatin F-hydroxypropylamide (MTD study); type: in vivo, mouse
Description: The vehicle control group received physiological saline.

[2] = target: 5T4 antigen on the cell surface (A431 cells and MDA-MB-231-5T4 OE cells) (human) (UniProt Q13641); test: flow cytometry (MFI) on 5T4-expressing cells at 5 µg/mL, anti-Fc-FITC detection
UniProt Q13641, sequence (Q13641 32-420): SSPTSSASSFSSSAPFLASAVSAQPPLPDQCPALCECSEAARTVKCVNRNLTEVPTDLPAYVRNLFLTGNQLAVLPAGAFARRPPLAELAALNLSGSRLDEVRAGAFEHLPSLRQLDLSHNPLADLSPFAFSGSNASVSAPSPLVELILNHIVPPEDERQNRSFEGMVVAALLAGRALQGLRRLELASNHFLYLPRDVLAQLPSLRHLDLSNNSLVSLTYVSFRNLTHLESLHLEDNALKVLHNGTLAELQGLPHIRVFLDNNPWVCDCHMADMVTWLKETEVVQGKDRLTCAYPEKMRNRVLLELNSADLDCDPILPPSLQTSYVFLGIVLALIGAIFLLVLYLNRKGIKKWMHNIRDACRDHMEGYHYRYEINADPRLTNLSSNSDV

Row | Molecule | Animals survived by the end of the study (Day 21) ([1]; single IV dose 3.2 mg/kg) | Tolerability ([1]; single IV dose 4.7 mg/kg) | fold less binding than the anti-5T4 scFvFc molecules [2]
1 | CC[C@H](C)[C@@H]([C@@H](CC(=O)N1CCC[C@H]1[C@H](OC)[C@@H](C)C(=O)N[C@@H](Cc1ccccc1)C(=O)NCCCO)OC)N(C)C(=O)[C@@H](NC(=O)[C@H](C(C)C)N(C)C)C(C)C [AF-HPA, auristatin F hydroxypropyl amide] (NMe2Val-V[Dil][Dolaproine]F-{NH(3-hydroxypropyl)}) | 2 out of 6 | exceeded the maximum tolerated dose | 
2 | unrelated scFvFc fusion protein |  |  | 200 fold
